Data from US5478728A, “Process for antibody combining site-catalyzed SYN elimination in the formation of a CIS olefin” (The Scripps Research Institute, priority 1994, dated 1995).
“Also recorded” adds a separate entry of the source.

Tests used:
[1] = Background elimination and isomerization in the absence of antibody; type: physicochemical; conditions: for elimination product formed in the absence of antibody / isomerization of olefinic product under background reaction conditions: 15 percent aq DMSO, 100 mM CHES buffer; for isomerization of olefinic product under background reaction conditions: no antibody
Description: Reaction conditions: 15 percent aq DMSO, 100 mM CHES buffer, pH 9.0, 37° C.
(§1) Immunization with the KLH conjugate and generation of monoclonal antibodies were performed as described hereinafter. Twenty-six monoclonal antibodies specific for Compound 5 were assayed for catalysis. The rate of elimination of substrate Compound 1 to product Compounds 3 or 4 was assayed in the absence and presence of antibody at 37° C. Thus, a solution of antibody in 100 mM CHES buffer, pH 9.0 at 37° C., was treated with substrate Compound 1 in DMSO to provide a final solution containing […] in 15 percent aqueous DMSO, 100 mM CHES, pH 9.0. All reaction rates were determined by analytical reverse phase HPLC (Vydac-C18, 41 percent acetonitrile in H2 O/0.1 percent trifluoroacetic acid) by measuring product formation relative to 4-methyl-3-nitroanisole as a standard.

antibody 1D4 = assay: Inhibition of 1D4 catalytic activity by hapten; type: biochemical, mouse; conditions: addition of hapten; substrate Compound 1
Description: as §1
The initial rate of syn elimination by 1D4, when measured as a function of substrate Compound 1 concentrations followed Michaelis-Menten kinetics.

SMILES	elimination product formed in the absence of antibody ([1]; pH 9.0, 37° C.)	isomerization of olefinic product under background reaction conditions ([1]; pH 9.0, 37° C.)	further results
C[C@@H](C(=O)c1ccccc1)[C@@H](F)c1ccccc1 (relative stereo) [Compound 1]	exclusively the trans olefin Compound 3; also recorded: only product Compound 3 was generated		first order rate constant of elimination to Compound 3 ([1]; absence of antibody, 15 percent aqueous DMSO, 100 mM CHES, pH 9.0, 37° C.): 0.000248 min⁻¹; formation of cis product Compound 4 in the absence of antibody ([1]; reaction conditions pH 9.0, 37° C.): immeasurably slow
C[C@@H](C(=O)c1ccccc1)[C@H](F)c1ccccc1 (relative stereo) [Compound 2]	eliminates entirely to the trans olefin Compound 3		
N[C@@]1(C(=O)c2ccccc2)[C@@H]2C[C@@H](C[C@H]2OC(=O)CCC(=O)O)[C@@H]1c1ccccc1 (relative stereo) [Compound 5, (1R*,2S*,4R*,5S*,6S*)-6-Amino-6-benzoyl-5-phenylbicyclo[2.2.1]heptane-2-hemisuccinate]			inhibition of the catalytic activity of 1D4 (antibody 1D4): competitively inhibited
C/C(=C\c1ccccc1)C(=O)c1ccccc1 [Compound 3]		No isomerization	
C/C(=C/c1ccccc1)C(=O)c1ccccc1 [Compound 4]		No isomerization	
